Source: patent US9012655B2, “Antimicrobial/adjuvant compounds and methods” (Denouamed, Inc., priority 2011, dated 2015)
In brackets after ≈: the same amount, converted by molar mass. Where two headings read alike, the source gives them in different places.

How the values were obtained:
AcpS enzyme = AcpS enzyme (Escherichia coli, UniProt P24224); assay: Measurement of AcpS inhibition ([3H]acetyl-CoA incorporation into apo-ACP); type: biochemical; conditions: % activity vs blank-subtracted counts
Experimental: [^3H]Acetyl-CoA was mixed as 1 volume of Perkin Elmer NET290 radiolabeled stock (e.g. 0.1 mCi/ml, 3.7 Ci/mmol in Na-acetate, pH 4.5-5.0=27 μM) with 1.2 volumes of 1 mM unlabelled acetyl-CoA (Sigma). Trichloroacetic acid was prepared as a 10% w/v solution. Bovine serum albumin was prepared as a 25 mg/ml solution in water. DTT was prepared as a 50 mM solution in water.
• 1. A standard reaction contained the following in a total volume of 10 μl:
• 2. Tubes were incubated at RT. [^3H]acetyl-CoA was added last to start the reaction. To stop the reaction, 2 μl was removed to a 1.5-ml microfuge tube containing 800 μl cold 10% TCA. Up to four time points were collected for each reaction, e.g. at 5 min, 10 min, 30 min, and 60 min. • 3. 20 μl of 25 mg/ml BSA was added to each tube, mixed and incubated on ice for 10 min, then centrifuged at 12,000 g for 5 min to form a pellet. Supernatant was removed using P1000. • 4. Each pellet was washed twice with 800 μl of cold 10% TCA each time, then centrifuged at 12,000 g for 5 min after each wash. The supernatant was discarded. Each pellet was resuspended in 50 μl of formic acid. The suspension was transferred to a scintillation vial and radioactivity was measured in 2 ml of liquid scintillation cocktail.
The random (stochastic) error in scintillation counting is proportional to the square root of the counts (not dpm) accumulated in the counting period; i.e. 10% for 100, 3.3% for 1,000, 1% for 10,000, etc. Provided radioactive counts (dpm) are in the thousands, the assay provides useful data. Results are reported in terms of % activity with respect to the blank-subtracted counts for working substrate. A % activity of less than about 40% is indicative of AcpS enzyme inhibition by the test compound at that concentration.

[1] = test system: Methicillin-Resistant Staph. aureus (MRSA); assay: MIC, NCCLS M7-A6 broth microdilution, MRSA; type: cell-based; conditions: 16 to 20 h, 35 degrees Celsius; for MIC: Staphylococcus aureus, MRSA
Experimental: (§1) Susceptibilities to the compounds were determined using the National Committee for Clinical Laboratory Standards (NCCLS) M7-A6 broth microdilution method. Cation-adjusted Mueller-Hinton broth (Ca^2+, 25 μg/mL; Mg^2+, 12.5 μg/mL) microdilution panels were prepared to contain antimicrobial doubling dilution concentrations of an appropriate range. DMSO (dimethylsulfoxide) controls were incorporated into the panel to mimic the quantity of DMSO used in dissolving some of the compounds at the higher concentrations. Each final panel well volume was 100 μL with a bacterial inoculum of 5×10^5 CFU (colony forming units)/mL of the relevant bacterium. Panels were read following 16 to 20 h of incubation at 35 degrees Celsius in ambient air. The MIC (minimum inhibitory concentration) was defined as the lowest concentration of antimicrobial inhibiting visible growth.

Ps. aeruginosa = assay: Combination MICs for antibiotic adjuvant potential; type: cell-based
Experimental: as §1
Generally following the procedure of Example 9, MICs of ampicillin, erythromycin, and azithromycin were determined against Ps. aeruginosa. Parallel to this effort, solutions were prepared which were identical. To each of these were added 0.5 μL of stock solution of a given compound of the present invention, then diluted to produce a final concentration of 125 μM, 60 μM, and/or 30 μM for determination of adjuvant activity. Compounds were determined to be antibiotic adjuvants if the mixture produced a lower MIC than that of the antibiotic agent alone.

[2] = test system: Staphylococcus aureus EUP MRSA002; assay: MIC panel of challenge pathogens (CLSI), EUP MRSA002; type: cell-based
Experimental: The inocula for each bacterial strain were prepared by picking 5-10 distinct colonies from the culture plates and suspending them in the appropriate broth as per Clinical and Laboratory Standards Institute (CLSI) guidelines M07-A8, M24-A or M11-A7 as appropriate. The inoculum was resuspended by vigorous shaking on a vortex mixer for 15 s. The turbidity was then adjusted to McFarland standard 0.5 ([…]). The inoculum was further diluted in the appropriate media for MIC tests to give a final inoculum in each well of 2-8×10^5 CFU/ml. MICs were tested in the appropriate broth in accordance with the appropriate CLSI guidelines.
A stock solution of each compound was prepared at a concentration of 1.28 g/L in DMSO. The stock was further diluted in the appropriate media to give a top starting concentration of 128 mg/L in the assay. 100 μL of the appropriate media, as per CLSI guidelines, was dispensed into each well in columns 2-12. 200 μL of the each compound solution (at 256 mg/L) was dispensed into each well in column 1. 100 μL aliquots were pipetted from column 1 wells and dispensed into column 2 with a multichannel pipette (±2% coefficient of variation) thus diluting two-fold. 100 μL samples were then pipetted from column 2 wells and dispensed into column 3. The process was repeated through to column 10. The final 100 μL of diluted drug from column 10 was then discarded. Row 11 acted as a positive control (no compound, but organisms added), Row 12 acted as a negative control (no compound, and no organisms added).
100 μL of the appropriate inoculum suspension in the appropriate media, as per CLSI guidelines, was added to the appropriate wells. […] All plates were incubated in the dark under aerobic or anaerobic conditions at 30-37° C. for 24-48 hours, according to the appropriate CLSI guideline. Plates were read visually 24-48 hours post inoculation. Endpoints of 100% inhibition were determined (CLSI interpretation endpoints following visual examination).
MIC50, MIC80, and 100% inhibition results are reported below in μg/mL in the following Tables, indicating each compound tested against a given species and strain: […]

E. coli D22 = assay: MIC, NCCLS M7-A6 broth microdilution, E. coli D22; type: cell-based; conditions: 35 degrees Celsius; for MIC: Escherichia coli, D22, 16 to 20 h
Experimental: as §1

[3] = test system: Streptococcus pneumoniae Group A; assay: MIC against Streptococcus pneumoniae Group A; type: cell-based; conditions: initial measurement, Todd Hewitt broth
Experimental: as §1
Generally following the procedure of Example 9, but using Todd Hewitt broth (beef heart digest) rather than Mueller-Hinton broth, MICs were initially measured against Streptococcus pneumoniae Group A for compounds of the present invention as follows: […]

[4] = EUPMRSA002, Staphylococcus aureus EUP MRSA002, read-out: 100% inhibition
[5] = EUPMRSA002, Staphylococcus aureus EUP MRSA002, read-out: MIC50 (50%)
[6] = EUPMRSA002, Staphylococcus aureus EUP MRSA002, read-out: MIC80 (80%)
[7] = Staphylococcus aureus EUP MRSA002

Chain of AcpS enzyme (P24224 whole entry): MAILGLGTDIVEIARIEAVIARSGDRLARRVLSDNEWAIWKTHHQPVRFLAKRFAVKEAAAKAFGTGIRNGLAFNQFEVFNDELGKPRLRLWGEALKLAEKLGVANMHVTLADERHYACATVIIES

| SMILES | activity at 50 µM (AcpS enzyme; test compound 50 uM) [%] | remaining activity at 500 µM (AcpS enzyme; test compound 500 uM) [%] | MIC [1] [µM] | MIC [2, 4] [µg/mL] | MIC50 [2, 5] [µg/mL] | MIC80 [2, 6] [µg/mL] | MIC (E. coli D22) [µM] | also measured |
| --- | --- | --- | --- | --- | --- | --- | --- | --- |
| Clc1ccc(-c2cc(-c3nnn[nH]3)sc2-c2ccc(Cl)cc2)cc1 [DNM0487, 5-(4,5-Bis(4-chlorophenyl)thiophen-2-yl)-1H-tetrazole] | 3.34 | 0.08 | 8 (≈ 2.99 µg/mL) | 1 (≈ 2.68 µM) | 1 (≈ 2.68 µM) | 1 (≈ 2.68 µM) | > 125 | MIC (Ps. aeruginosa; Pseudomonas aeruginosa, compound alone, read-out: standalone MIC): > 2000 µM |
| Cc1ccc(-c2cc(-c3nn[nH]n3)cc(-c3ccccc3-c3ccccc3)c2)c2ccccc12 [DNM0474] |  |  |  |  |  |  |  | % AcpS activity at 50 uM (AcpS enzyme; test compound 50 uM): 15.08%; % AcpS activity @ 500 uM (AcpS enzyme; test compound 500 uM): 0.3%; MIC MRSA [1]: 2 µM (≈ 0.877 µg/mL); 100% inhibition [2, 7]: 0.5 µg/mL; MIC50 (50%) [2, 7]: 0.5 µg/mL (≈ 1.14 µM); MIC80 (80%) [2, 7]: 0.5 µg/mL (≈ 1.14 µM); MIC E coli D22 (E. coli D22; 16 to 20 h): >125 µM |
| Cc1cc(Cl)ccc1-c1cc(-c2nnn[nH]2)sc1-c1ccc(Cl)cc1C [DNM0488, 5-(4,5-Bis(4-chloro-2-methylphenyl)thiophen-2-yl)-1H-tetrazole] | 11.5 | 0.32 | 4 (≈ 1.61 µg/mL) | 0.5 (≈ 1.25 µM) | 0.5 (≈ 1.25 µM) | 0.5 (≈ 1.25 µM) | 125 (≈ 50.2 µg/mL) |  |
| Cc1ccc(Cl)cc1-c1cc(-c2nnn[nH]2)sc1-c1cc(Cl)ccc1C [DNM0508, 5-(4,5-Bis(5-chloro-2-methylphenyl)thiophen-2-yl)-1H-tetrazole] | 44.9 | 0.1 | 4 (≈ 1.61 µg/mL) | 1 (≈ 2.49 µM) | 1 (≈ 2.49 µM) | 1 (≈ 2.49 µM) | > 125 |  |
| CC(C)c1cc(Cl)ccc1-c1cc(C(=O)O)sc1-c1ccc(Cl)cc1C(C)C [DNM0566, 4,5-Bis(4-chloro-2-isopropylphenyl)thiophene-2-carboxylic acid] |  |  |  | ≤ 0.25 | ≤ 0.25 | ≤ 0.25 |  |  |
| CN[C@H](CC(C)C)C(=O)N[C@H]1C(=O)N[C@@H](CC(N)=O)C(=O)N[C@H]2C(=O)N[C@H]3C(=O)N[C@H](C(=O)N[C@H](C(=O)O)c4cc(O)cc(O)c4-c4cc3ccc4O)[C@H](O)c3ccc(c(Cl)c3)Oc3cc2cc(c3O[C@@H]2O[C@H](CO)[C@@H](O)[C@H](O)[C@H]2O[C@H]2C[C@](C)(N)[C@H](O)[C@H](C)O2)Oc2ccc(cc2Cl)[C@H]1O [Vancomycin, reference compound] |  |  |  |  |  |  |  | MIC ([2]; Staphylococcus aureus, EUPMRSA002, read-out: 100% inhibition): 0.5 µg/mL (≈ 0.345 µM); MIC50 ([2]; Staphylococcus aureus, EUPMRSA002, read-out: MIC50 (50%)): 0.5 µg/mL (≈ 0.345 µM); MIC80 ([2]; Staphylococcus aureus, EUPMRSA002, read-out: MIC80 (80%)): 0.5 µg/mL (≈ 0.345 µM) |
| CC(C)c1cc(Cl)ccc1-c1cc(-c2nnn[nH]2)sc1-c1ccc(Cl)cc1C(C)C [DNM0548, 5-(4,5-Bis(4-chloro-2-iso-propylphenyl)thiophen-2-yl)-1H-tetrazole] | 3.1 | 0.1 | 4 (≈ 1.83 µg/mL) | ≤ 0.25 | ≤ 0.25 | ≤ 0.25 | 60 (≈ 27.4 µg/mL) | MIC [3]: < 0.25 µM; fold lower MIC for ampicillin (Ps. aeruginosa; compound at 125 μM): up to 125 fold; fold lower MIC for erythromycin (Ps. aeruginosa; compound at 125 μM): up to 125 fold |
| Cc1cc(Cl)ccc1-c1cc(-c2nnn[nH]2)sc1-c1ccc(C)c2ccccc12 [DNM0576, 5-(4-(4-Chloro-2-methylphenyl)-5-(4-methylnaphthalen-1-yl)thiophen-2-yl)-1H-tetrazole] | 5.88 | 0.15 | 4 (≈ 1.67 µg/mL) | 0.5 (≈ 1.2 µM) | 0.5 (≈ 1.2 µM) | 0.5 (≈ 1.2 µM) | > 125 | MIC [3]: 0.5 µM (≈ 0.208 µg/mL) |
| Clc1ccc(Cc2sc(-c3nnn[nH]3)cc2-c2cccc(CC3CCCC3)c2)cc1 [DNM0610, 5-(5-(4-Chlorobenzyl)-4-(3-(cyclopentylmethyl)phenyl)thiophen-2-yl)-1H-tetrazole] |  |  |  | 0.5 (≈ 1.15 µM) | 0.5 (≈ 1.15 µM) | 0.5 (≈ 1.15 µM) |  |  |
| Fc1ccc(-c2cc(-c3nnn[nH]3)sc2-c2ccc(F)c3ccccc23)c2ccccc12 [DNM0537, 5-(4,5-Bis(4-fluoronaphthalen-1-yl)thiophen-2-yl)-1H-tetrazole] | 1.28 | 0.14 | 2 (≈ 0.881 µg/mL) | 1 (≈ 2.27 µM) | 0.5 (≈ 1.14 µM) | 1 (≈ 2.27 µM) | 125 (≈ 55.1 µg/mL) | fold lower MIC for erythromycin (Ps. aeruginosa; compound at 30 μM): ≤ 7 fold |
| CCCCc1cccc(-c2cc(-c3nnn[nH]3)sc2Cc2ccc(Cl)cc2)c1 [DNM0606, 5-(4-(3-Butylphenyl)-5-(4-chlorobenzyl)thiophen-2-yl)-1H-tetrazole] |  |  |  | ≤ 0.25 | ≤ 0.25 | ≤ 0.25 |  |  |
